# In patent US5929112A, “Derivatives of N,N'-di (carboxyalkyl) alkylene di-or triamine” (L'Oreal, priority 1995, dated 1999):
# Where a name gives a salt, the structure may show the parent alone.
# Assay: Comparative solubility tests in 50 mM acetate buffer pH 5.8
# Format: physicochemical
# Conditions: aqueous buffer
# Excerpt: COMPARATIVE SOLUBILITY TESTS
row,solubility [mg/mL],Structure (SMILES)
1,> 100,"COc1cc(CN(CC(=O)O)CC(C)N(CC(=O)O)Cc2cc(OC)c(OC)c(OC)c2)cc(OC)c1OC (centres unmarked) [Example 1, N,N'-bis-(3,4,5-trimethoxybenzyl)-2-methyl ethylenediamine diacetic acid]"
2,< 5,"COc1cc(CN(CCN(CC(=O)O)Cc2cc(OC)c(OC)c(OC)c2)CC(=O)O)cc(OC)c1OC [N,N'-bis-(3,4,5-trimethoxybenzyl) ethylenediamine-N,N'-diacetic acid, 2 HCl]"
